Measurements as given in patent publication US5399580A, “Therapeutic nucleosides-uses” (Burroughs Wellcome Co., priority 1993, dated 1995).
Where two headings read alike, the source gives them in different places.

Key:
T cells (Molt 4) = test: Inhibition of the growth of T cells (Molt 4); assay type: cell-based; conditions: Homo sapiens, read-out: I50, growth of Molt 4 cells
Description: (§1) The compounds of the invention were tested for inhibition of the growth of T cells (Molt 4) and B cells (IM9) by the method of Averett, D., Journal of Virological Methods, 23, (1989), 263-276.

[1] = tested on: HBV (HepG2 2.2.15, P5A cell line); test: Anti-HBV assay: HBV DNA in supernatants of HBV-producing cells, immunoaffinity capture, PCR and hybrid-capture detection; assay type: cell-based, Hepatitis B virus; conditions: HepG2 2.2.15, P5A cells, compound on days 1, 3, 5, 7
Description: Anti-HBV activity of compounds of formula (I) and (I-1) was determined with a high-capacity assay for assessing efficacy. Supernatants from growing HBV-producing cells (HepG2 2.2.15, P5A cell line) in 96-well plates are applied to microtiter plate wells which have been coated with a specific monoclonal antibody to HBV surface antigen (HBsAg). Virus particles present in the supernatants bind to the antibody and remain immobilized while other debris is removed by washing. These virus particles are then denatured to release HBV DNA strands which are subsequently amplified by the polymerase chain reaction and detected with a colorimetric hybrid-capture assay. Quantitation is achieved through fitting of a standard curve to dilutions of a cell supernatant with known HBV DNA content. By comparing HBV DNA levels of untreated control cell supernatants with supernatants containing a compound of formula (I) or (I-1), a measure of anti-HBV effectiveness is obtained.
HBV producer cells, 2500 cells/well, were seeded in 96-well culture dishes in RPMI/10% fetal bovine serum/2 mM glutamine (RPMI/10/2:). […] Twenty-five uL HBV standard media dilutions in RPMI/10/2 were added to 2 rows of wells to serve as an internal standard curve for quantitation, and the plates were sealed and incubated at 4° C. overnight. […]
Polymerase chain reaction (Saiki, R. K. et al., Science, 239 (4839) 487-91 (1988)) was carried out on 5uL samples, using a Perkin Elmer PCR kit. […] Primers were chosen from conserved regions in the HBV genome, as determined by alignment of several sequences. […]
PCR products were detected with horse radish peroxidase-labeled oligonucleotide probes (Synthecell Corp., Rockville, Md. 20850), which hybridize to biotinylated strands of denatured PCR products directly in streptavidin-coated microtiter plate wells, using essentially the method of Holodiniy, M. et al., Bio Techniques, 12 (1) 37-39 (1992). […] Quantities of HBV DNA present in the original samples were calculated by comparison with standards. […]

[2] = tested on: Human cytomegalovirus (HCMV); test: Anti-HCMV plaque reduction assay in MRC5 cells; assay type: cell-based; conditions: Human betaherpesvirus 5, read-out: IC50, anti-HCMV activity (50% inhibitory concentration)
Description: Human cytomegalovirus (HCMV) is assayed in monolayers of MRC5 cells (human embryonic lung) in multiwell trays. Activity of compounds is determined in the plaque reduction assay, in which a cell monolayer is infected with a suspension of HCMV. A range of concentrations of the compound to be tested (of known molarity) is then incorporated into the carboxymethyl cellulose overlay. Plaque numbers of each concentration are expressed as percentage of the control and a dose-response curve is drawn. From this curve the 50% inhibitory concentration (IC50) is estimated.

B cells (IM9) = test: Inhibition of the growth of B cells (IM9); assay type: cell-based; conditions: Homo sapiens, IM-9; read-out: I50, growth of IM9 cells
Description: as §1

[3] = Hepatitis B virus, HepG2 2.2.15, read-out: IC50 (median inhibitory concentration, 50 percent decrease in HBV DNA), approximate IC50

SMILES	IC50 (T cells (Molt 4)) [µM]	IC50 [1, 3] [µM]	IC50 [2] [µM]	IC50 (B cells (IM9)) [µM]	IC50 ([1]; read-out: IC50 (median inhibitory concentration, 50 percent decrease in HBV DNA), approximate IC50) [µM]
OC[C@@H]1C[C@@H](O)[C@H](n2c(Br)nc3cc(Cl)c(Cl)cc32)C1 (relative stereo) [Ex. 13, (±)-(1R*,2R*,4S*)-2-(2-Bromo-5,6-dichloro-1H-benzimidazol-1-yl)-4-(hydroxymethyl)cyclo-pentanol]	32	5	1	88	
OC[C@@H]1C[C@H](n2c(Br)nc3cc(Cl)c(Cl)cc32)[C@@H](O)[C@H]1O (relative stereo) [Ex. 4, (±)-(1R*,2S*,3S*,5S*)-5-(2-Bromo-5,6-dichloro-1H-benzimidazol-1-yl)-3-(hydroxymethyl)-1,2-cyclopentanediol]	39		1.9	48	
OC[C@@H]1C[C@H](n2c(Br)nc3cc(Cl)c(Cl)cc32)[C@@H](O)[C@H]1O [Ex. 69, (1R,2S,3S,5S)-5-(2-Bromo-5,6-dichloro-1H-benzimidazol-1-yl)-3-(hydroxymethyl)-1,2-cyclopentanediol]	29	0.72		35	1.3
